Experimental data as given in patent US11339203B2, “Antitumor peptide and use thereof” (TOAGOSEI CO., LTD., priority 2018, dated 2022).
Where two headings read alike, the source gives them in different places. Where no end group is shown, it is not given here.

Assays:
[1] = tested on: human kidney cancer cell line (CAKI2); type: cell-based; conditions: for Cell Viability (%): human, 48 h
Method: The antitumor activity of each sample peptide synthesized in above-mentioned Test Example 1 was evaluated targeted in human-derived cultured tumor cells. More specifically, a human kidney cancer cell line (CAKI2) that is currently commercially available was used for the test tumor cells. CAKI2 cells were cultured and adjusted to cell count of about 5×10^3 cells per single well of 96-well plate. The amount of medium at this time was made to be 100 μL per well. Next, the 96-well plate was arranged in a CO2 incubator and incubated for about 1 day (21 hours to 24 hours) under conditions of 37° C. and 5% CO2. Subsequently, peptide-containing test media were respectively prepared for each concentration so that the concentration of each sample peptide targeted for evaluation was 12.5 μM and 25 μM followed by supplying to the wells in which the cells targeted for evaluation were cultured (namely, the wells following the above-mentioned incubation) so that the amount of media was 90 μL per well. The 96-well plate was then returned to CO2 incubator followed by incubating for 48 hours under conditions of 37° C. and 5% CO2. The number of wells (n) at each concentration in each peptide addition test group was set to 3. Thus, the values of the results indicated in the following table are the average values of the results respectively obtained for 3 test wells. Cell viability (%) was determined in the manner described below. Following completion of incubation for 48 hours as described above, the medium in each well was replaced with 100 μL of fresh medium not containing peptide followed by further adding a reagent for measuring cell proliferation in the form of “Cell Counting Kit-8” (Dojindo Laboratories) containing “water-soluble tetrazolium salt (WST-8)” as a coloring reagent at 10 μL per well. Subsequently, the 96-well plate was again returned to CO2 incubator and incubated for 1.5 hours to 2 hours under conditions of 37° C. and 5% CO2. Following completion of incubation, cell viability (%) was evaluated using a colorimetric method consisting of recovering the cell culture liquid containing the above-mentioned reagent together with measuring absorbance at wavelength of 450 nm based on reduction of tetrazolium salt (value corrected for absorbance at a wavelength of 650 nm: A450 to A650). More specifically, the cell viability (%) of each test cell line was calculated from the measured absorbance as a relative value based on cell viability of 100% for the measured value (measured absorbance) of the comparison test group that underwent incubation for 48 hours as described above in only medium not containing peptide. McCoy's 5A medium (Gibco) containing 2 mM L-glutamine, 3,000 mg/L of glucose, 100 units/mL of penicillin, 100 μg/mL of streptomycin and 10% fetal bovine serum (FBS).

[2] = tested on: human prostate cancer cell line (PC-3); type: cell-based; conditions: 48 h
Method: CAKI2 cells were cultured and adjusted to cell count of about 5×10^3 cells per single well of 96-well plate. The amount of medium at this time was made to be 100 μL per well. Next, the 96-well plate was arranged in a CO2 incubator and incubated for about 1 day (21 hours to 24 hours) under conditions of 37° C. and 5% CO2. […] Cell viability (%) was determined in the manner described below. […] Following completion of incubation, cell viability (%) was evaluated using a colorimetric method consisting of recovering the cell culture liquid containing the above-mentioned reagent together with measuring absorbance at wavelength of 450 nm based on reduction of tetrazolium salt (value corrected for absorbance at a wavelength of 650 nm: A450 to A650). More specifically, the cell viability (%) of each test cell line was calculated from the measured absorbance as a relative value based on cell viability of 100% for the measured value (measured absorbance) of the comparison test group that underwent incubation for 48 hours as described above in only medium not containing peptide. Antitumor activity was evaluated for Sample 2 in above-mentioned Test Example 1 targeted at multiple types of human-derived cultured tumor cells. […]

In the case of “FIGNLALSDLLAGVAYTANLLLKKRTLRKNDRKKR-NH2 [Sample 2]”, the “antitumor activity (tumor cell proliferation inhibitory activity)” value ([1]; CAKI2 cells, result in words, among Samples 1 to 7) is reported as “superior antitumor activity”, the “Cell Viability (%)” value ([1]; 12.5 μM) is reported as 9.2% and the “Cell Viability (%)” value ([1]; 25 μM) is reported as 0.4%. For the same substance, the “Cell Viability (%)” value ([2]; 12.5 μM) was 25.6% and the “Cell Viability (%)” value ([2]; 25 μM) was 2.5%.
